Reference: patent US9594073B2, “Test solvent for evaluating the compatibility of biologically active substances and graft copolymers” (ABBVIE DEUTSCHLAND GMBH & CO KG, priority 2010, dated 2017)

Test: Homogeneity of melt extrudates with Soluplus (optical microscope)
Format: physicochemical
Description: Samples were prepared by melt extrusions of mixtures consisting of fenofibrate or ibuprofen and Soluplus®. […] Aliquots of 50 g of the powdery mixtures were extruded on a laboratory extruder (Rondol l (10 mm) Rondol Technology Ltd. Staffordshire GB) using a conveying screw equipped with two kneading elements at about 120° C. and 100 rpm. The powdery mixtures were continuously metered in via a vibratory feeder. The extrudate exiting the extruder was passed through a calendar with two smooth rollers arranged at a gap distance of 0.4 mm. Calendered sheets having a thickness of about 1 mm were thus obtained. Pieces of 2 mm×2 mm were cut out from the sheets and homogeneity of the pieces was examined using an optical microscope (Leica DMLM).

CC(C)Cc1ccc(C(C)C(=O)O)cc1 (centres unmarked) [ibuprofen]
Amount of crystals in extrudate (ibuprofen concentration 40 wt %): no crystals
Amount of crystals in extrudate (ibuprofen concentration 45 wt %): no crystals
Amount of crystals in extrudate (ibuprofen concentration 50 wt %): low
Amount of crystals in extrudate (ibuprofen concentration 55 wt %): moderate
Amount of crystals in extrudate (ibuprofen concentration 60 wt %): high
